Measured values taken from patent publication US9012460B2, “1-(2-phenoxymethylphenyl)piperazine compounds” (Theravance Biopharma R&D IP, LLC, priority 2010, dated 2015).

Legend:
hSERT [1] = biological target: T1, hSERT (Homo sapiens, UniProt P31645); test: hSERT membrane radioligand binding assay (Assay 1); conditions: 3H-citalopram, membranes from HEK-293 cells expressing hSERT; read-out: SERT pKi (converted)
T1 construct: expressed in transfected cells; host or cells: HEK-293
Method: (§1) Membrane radioligand binding assays were used to measure inhibition of labeled ligand (^3H-citalopram or ^3H-nisoxetine or ^3H-WIN35428) binding to membranes prepared from cells expressing the respective human recombinant transporter (hSERT or hNET or hDAT) in order to determine the pKi values of test compounds at the transporters.
(§2) Recombinant human embryonic kidney (HEK-293) derived cell lines stably transfected with hSERT or hNET, respectively, were grown in DMEM medium supplemented with 10% dialyzed FBS (for hSERT) or FBS (for hNET), 100 μg/ml penicillin, 100 μg/ml streptomycin, 2 mM L-glutamine and 250 μg/ml of the aminoglycoside antibiotic G418, in a 5% CO2 humidified incubator at 37° C. When cultures reached 80% confluence, the cells were washed thoroughly in PBS (without Ca^2+ and Mg^2+) and lifted with 5 mM EDTA in PBS. Cells were pelleted by centrifugation, resuspended in lysis buffer (10 mM Tris-HCl, pH7.5 containing 1 mM EDTA), homogenized, pelleted by centrifugation, then resuspended in 50 mM Tris-HCl, pH 7.5 and 10% sucrose at 4° C. Protein concentration of the membrane suspension was determined using a Bio-Rad Bradford Protein Assay kit. Membranes were snap frozen and stored at −80° C. Chinese hamster ovary membranes expressing hDAT (CHO-DAT) were purchased from PerkinElmer and stored at −80° C.
(§3) Binding assays were performed in a 96-well assay plate in a total volume of 200 μL assay buffer (50 mM Tris-HCl, 120 mM NaCl, 5 mM KCl, pH 7.4) with 0.5, 1, and 3 μg membrane protein, for SERT, NET and DAT, respectively.
(§4) Stock solutions (10 mM in DMSO) of test compound were prepared and serial dilutions made using Dilution Buffer (50 mM Tris-HCl, 120 mM NaCl, 5 mM KCl, pH 7.4, 0.1% BSA, 400 μM ascorbic acid).
(§5) Following a 60 minute incubation at 22° C. (or a period sufficient to reach equilibrium), the membranes were harvested by rapid filtration over a 96-well UniFilter GF/B plate, pretreated with 0.3% polyethyleneimine, and washed 6 times with 300 μl wash buffer (50 mM Tris-HCl, 0.9% NaCl, pH 7.5 at 4° C.). Plates were dried overnight at room temperature, ˜45 μl of MicroScint™-20 (Perkin Elmer) added and bound radioactivity quantitated via liquid scintillation spectroscopy. Inhibition curves and saturation isotherms were analyzed using GraphPad Prism Software package (GraphPad Software, Inc., San Diego, Calif.). IC50 values were generated from concentration response curves using the Sigmoidal Dose Response (variable slope) algorithm in Prism GraphPad. Kd and Bmax values for the radioligand were generated from saturation isotherms using the Saturation Binding Global Fit algorithm in Prism GraphPad. pKi (negative decadic logarithm of Ki) values for test compounds were calculated from the best-fit IC50 values, and the Kd value of the radioligand, using the Cheng-Prusoff equation (Cheng & Prusoff (1973) Biochem. Pharmacol. 22(23):3099-3108): Ki=IC50/(1+[L]/Kd), where [L]=concentration radioligand.

hNET [2] = biological target: T2, hNET (Homo sapiens, UniProt P23975); test: hNET membrane radioligand binding assay (Assay 1); conditions: 3H-nisoxetine, membranes from HEK-293 cells expressing hNET; read-out: NET pKi (converted)
T2 construct: expressed in transfected cells; host or cells: HEK-293
Method: as §1, §2, §3, §4, §5

hNET [3] = biological target: T2, hNET; test: hNET neurotransmitter uptake assay (Assay 2) or fluorescence-based assay of Tsuruda et al.; assay type: cell-based; conditions: norepinephrine reuptake inhibition; asterisk = fluorescence-based assay (Tsuruda et al. 2010); read-out: NET pIC50 (converted)
Method: (§6) Neurotransmitter uptake assays were used to measure inhibition of ^3H-serotonin (^3H-5-HT), ^3H-norepinephrine (^3H-NE), and ^3H-dopamine (^3H-DA) uptake into cells expressing the respective transporter (hSERT, hNET or hDAT) in order to determine the pIC50 values of test compounds at the transporters.
(§7) HEK-293 derived cell lines stably-transfected with hSERT, hNET, or hDAT, respectively, were grown in DMEM medium supplemented with 10% dialyzed FBS (for hSERT) or FBS (for hNET and hDAT), 100 μg/ml penicillin, 100 μg/ml streptomycin, 2 mM L-glutamine and 250 μg/ml of the aminoglycoside antibiotic G418 (for hSERT and hNET) or 800 ug/ml (for hDAT), in a 5% CO2 humidified incubator at 37° C. When cultures reached 80% confluence, the cells were washed thoroughly in PBS (without Ca^2+and Mg^2+) and lifted with 5 mM EDTA in PBS. […]
(§8) Following a 10 minute incubation, at 37° C., with radioligand, the cells were harvested by rapid filtration over a 96-well UniFilter GF/B plate, pretreated with 1% BSA, and washed 6 times with 650 μl wash buffer (ice cold PBS). Plates were dried overnight at 37° C., ˜45 μl of MicroScint™-20 (Perkin Elmer) added and incorporated radioactivity quantitated via liquid scintillation spectroscopy. Inhibition curves were analyzed using GraphPad Prism Software package (GraphPad Software, Inc., San Diego, Calif.). […]

hSERT [4] = biological target: T1, hSERT; test: hSERT neurotransmitter uptake assay (Assay 2) or fluorescence-based assay of Tsuruda et al.; assay type: cell-based; conditions: serotonin reuptake inhibition; asterisk = fluorescence-based assay (Tsuruda et al. 2010); read-out: SERT pIC50 (converted)
Method: as §6, §7, §8

T1 sequence (P31645 whole entry): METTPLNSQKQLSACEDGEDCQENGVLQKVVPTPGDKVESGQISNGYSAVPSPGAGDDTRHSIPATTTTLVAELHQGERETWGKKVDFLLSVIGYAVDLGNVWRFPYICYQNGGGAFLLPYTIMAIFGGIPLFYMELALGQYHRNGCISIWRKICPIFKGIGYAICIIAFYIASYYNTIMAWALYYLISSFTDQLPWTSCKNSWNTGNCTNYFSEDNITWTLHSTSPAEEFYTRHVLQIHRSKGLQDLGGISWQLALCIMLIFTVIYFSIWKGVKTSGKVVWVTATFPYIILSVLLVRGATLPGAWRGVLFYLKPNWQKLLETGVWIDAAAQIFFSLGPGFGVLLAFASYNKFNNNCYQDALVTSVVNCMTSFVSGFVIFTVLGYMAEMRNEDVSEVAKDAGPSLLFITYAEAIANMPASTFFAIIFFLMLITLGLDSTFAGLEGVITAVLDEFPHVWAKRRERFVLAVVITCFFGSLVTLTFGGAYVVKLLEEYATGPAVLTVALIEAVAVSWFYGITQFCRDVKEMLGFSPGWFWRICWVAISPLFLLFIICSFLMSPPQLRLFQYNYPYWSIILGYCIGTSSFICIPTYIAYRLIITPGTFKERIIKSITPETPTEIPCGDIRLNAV
T2 sequence (P23975 whole entry): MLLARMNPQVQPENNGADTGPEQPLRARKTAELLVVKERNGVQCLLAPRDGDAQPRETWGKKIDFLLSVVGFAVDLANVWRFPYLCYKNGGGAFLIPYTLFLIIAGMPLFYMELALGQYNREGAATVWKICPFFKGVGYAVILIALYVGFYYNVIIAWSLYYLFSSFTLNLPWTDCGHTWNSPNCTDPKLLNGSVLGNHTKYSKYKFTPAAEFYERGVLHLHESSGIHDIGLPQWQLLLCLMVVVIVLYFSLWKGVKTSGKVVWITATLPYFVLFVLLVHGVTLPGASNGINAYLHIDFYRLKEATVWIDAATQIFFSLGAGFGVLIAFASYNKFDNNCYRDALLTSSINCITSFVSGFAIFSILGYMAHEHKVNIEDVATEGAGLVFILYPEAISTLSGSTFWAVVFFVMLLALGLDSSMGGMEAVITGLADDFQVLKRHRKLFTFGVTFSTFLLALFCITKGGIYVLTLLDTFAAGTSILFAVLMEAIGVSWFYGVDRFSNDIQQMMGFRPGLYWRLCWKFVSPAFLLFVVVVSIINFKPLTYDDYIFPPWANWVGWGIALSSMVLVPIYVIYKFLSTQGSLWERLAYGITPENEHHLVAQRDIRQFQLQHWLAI

For Cc1ccc(F)cc1OCc1ccccc1N1CCNCC1 [Example 2-29], the Ki (hSERT [1]) was no more than 100 nM and the Ki (hNET [2]) was no more than 10000 nM.

Cc1ccc(Cl)cc1OCc1ccccc1N1CCNCC1 [Example 2-30] was tested, and the Ki (hSERT [1]) was no more than 100 nM and the Ki (hNET [2]) was no more than 100 nM.

In the case of Brc1cccc(OCc2ccccc2N2CCNCC2)c1 [Example 2-13], the Ki (hSERT [1]) is reported as no more than 100 nM and the Ki (hNET [2]) is reported as no more than 100 nM.

For COc1cccc(OCc2ccccc2N2CCNCC2)c1 [Example 2-16], the Ki (hSERT [1]) was no more than 100 nM and the Ki (hNET [2]) was no more than 10000 nM.

In the case of N#Cc1ccc(Cl)cc1OCc1ccccc1N1CCNCC1 [Example 2-32], the Ki (hSERT [1]) is reported as no more than 100 nM and the Ki (hNET [2]) is reported as no more than 10000 nM.

Molecule Fc1cc(OCc2ccccc2N2CCNCC2)ccc1Cl [Example 2-34] has a Ki (hSERT [1]) of no more than 100 nM and a Ki (hNET [2]) of no more than 100 nM.

Cc1c(F)cccc1OCc1ccccc1N1CCNCC1 [Example 2-20] was tested, and the Ki (hSERT [1]) was no more than 100 nM and the Ki (hNET [2]) was no more than 10000 nM.

Clc1cccc(OCc2ccccc2N2CCNCC2)c1 [Example 2-12] showed an IC50 (hNET [3]) of no more than 100 nM, an IC50 (hSERT [4]) of no more than 100 nM and a Ki (hSERT [1]) of no more than 100 nM. It also gave a Ki (hNET [2]) of no more than 100 nM.

With N#Cc1c(F)cccc1OCc1ccccc1N1CCNCC1 [Example 2-22] the Ki (hSERT [1]) was no more than 100 nM and the Ki (hNET [2]) was no more than 10000 nM.

In the case of Fc1c(Cl)cccc1OCc1ccccc1N1CCNCC1 [Example 2-18], the Ki (hSERT [1]) is reported as no more than 100 nM and the Ki (hNET [2]) is reported as no more than 10000 nM.

COc1ccccc1OCc1ccccc1N1CCNCC1 [Example 2-7] gave a Ki (hSERT [1]) of no more than 100 nM and a Ki (hNET [2]) of no more than 10000 nM.

Ic1ccccc1OCc1ccccc1N1CCNCC1 [Example 2-3] was tested, and the Ki (hSERT [1]) was no more than 100 nM and the Ki (hNET [2]) was no more than 100 nM.

For Cc1ccccc1OCc1ccccc1N1CCNCC1 [Example 2-4], the Ki (hSERT [1]) was no more than 100 nM and the Ki (hNET [2]) was no more than 10000 nM.

For Fc1cc(F)cc(OCc2ccccc2N2CCNCC2)c1 [Example 2-36], the Ki (hSERT [1]) was no more than 100 nM and the Ki (hNET [2]) was no more than 10000 nM.

With CC(C)c1cccc(C(C)C)c1OCc1ccccc1N1CCNCC1 [Example 2-38] the Ki (hSERT [1]) was no more than 10000 nM and the Ki (hNET [2]) was no more than 10000 nM.

Clc1ccc(Cl)c(OCc2ccccc2N2CCNCC2)c1 [Example 2-26] gave a Ki (hSERT [1]) of no more than 100 nM and a Ki (hNET [2]) of no more than 10000 nM.

Work on Clc1ccc(OCc2ccccc2N2CCNCC2)cc1Cl [Example 2-35] yielded a Ki (hSERT [1]) of no more than 100 nM and a Ki (hNET [2]) of no more than 100 nM.

With Clc1cc(Cl)c(OCc2ccccc2N2CCNCC2)cc1Cl [Example 2-39] the Ki (hSERT [1]) was no more than 100 nM and the Ki (hNET [2]) was no more than 100 nM.

Work on Ic1cccc(OCc2ccccc2N2CCNCC2)c1 [Example 1, 1-[2-(3-Iodophenoxymethyl)phenyl]piperazine] yielded a Ki (hSERT [1]) of no more than 100 nM and a Ki (hNET [2]) of no more than 100 nM.

COc1ccc(Cl)cc1OCc1ccccc1N1CCNCC1 [Example 2-31] gave a Ki (hSERT [1]) of no more than 100 nM and a Ki (hNET [2]) of no more than 10000 nM.

Cc1cccc(OCc2ccccc2N2CCNCC2)c1 [Example 2-14] gave a Ki (hSERT [1]) of no more than 100 nM and a Ki (hNET [2]) of no more than 10000 nM.

Work on Fc1ccc(OCc2ccccc2N2CCNCC2)cc1F [Example 2-33] yielded a Ki (hSERT [1]) of no more than 100 nM and a Ki (hNET [2]) of no more than 100 nM.

CC(C)(C)c1cccc(OCc2ccccc2N2CCNCC2)c1 [Example 2-15] gave a Ki (hSERT [1]) of no more than 10000 nM and a Ki (hNET [2]) of no more than 10000 nM.

c1ccc(Cc2ccccc2OCc2ccccc2N2CCNCC2)cc1 [Example 2-9] gave a Ki (hSERT [1]) of no more than 100 nM and a Ki (hNET [2]) of no more than 10000 nM.

For CC(C)c1ccccc1OCc1ccccc1N1CCNCC1 [Example 2-5], the Ki (hSERT [1]) was no more than 100 nM and the Ki (hNET [2]) was no more than 10000 nM.

Fc1ccc(Cl)c(OCc2ccccc2N2CCNCC2)c1 [Example 2-27] showed a Ki (hSERT [1]) of no more than 100 nM and a Ki (hNET [2]) of no more than 10000 nM.

For CCc1ccccc1OCc1ccccc1N1CCNCC1 [Example 2-6], the Ki (hSERT [1]) was no more than 100 nM and the Ki (hNET [2]) was no more than 10000 nM.

In the case of Cc1c(Cl)cccc1OCc1ccccc1N1CCNCC1 [Example 2-21], the Ki (hSERT [1]) is reported as no more than 100 nM and the Ki (hNET [2]) is reported as no more than 100 nM.

Clc1ccccc1OCc1ccccc1N1CCNCC1 [Example 2-2] showed a Ki (hSERT [1]) of no more than 100 nM and a Ki (hNET [2]) of no more than 10000 nM.

With Fc1ccc(Br)c(OCc2ccccc2N2CCNCC2)c1 [Example 2-28] the Ki (hSERT [1]) was no more than 100 nM and the Ki (hNET [2]) was no more than 10000 nM.

Clc1cccc(OCc2ccccc2N2CCNCC2)c1Cl [Example 2-19] was tested, and the Ki (hSERT [1]) was no more than 100 nM and the Ki (hNET [2]) was no more than 10000 nM.

In the case of Cc1ccc(OCc2ccccc2N2CCNCC2)cc1 [Example 2-17], the Ki (hSERT [1]) is reported as no more than 10000 nM and the Ki (hNET [2]) is reported as no more than 10000 nM.

Work on Fc1ccc(Br)cc1OCc1ccccc1N1CCNCC1 [Example 2-25] yielded a Ki (hSERT [1]) of no more than 100 nM and a Ki (hNET [2]) of no more than 100 nM.

In the case of Fc1ccccc1OCc1ccccc1N1CCNCC1 [Example 2-1], the Ki (hSERT [1]) is reported as no more than 10000 nM and the Ki (hNET [2]) is reported as no more than 100 nM.

For Clc1cc(Cl)cc(OCc2ccccc2N2CCNCC2)c1 [Example 2-37], the Ki (hSERT [1]) was no more than 100 nM and the Ki (hNET [2]) was no more than 10000 nM.

Fc1ccc(F)c(OCc2ccccc2N2CCNCC2)c1 [Example 2-23] gave a Ki (hSERT [1]) of no more than 100 nM and a Ki (hNET [2]) of no more than 10000 nM.

With Clc1cc(Cl)c(Cl)c(OCc2ccccc2N2CCNCC2)c1Cl [Example 2-40] the Ki (hSERT [1]) was no more than 100 nM and the Ki (hNET [2]) was no more than 10000 nM.

For c1ccc(COc2ccccc2OCc2ccccc2N2CCNCC2)cc1 [Example 2-11], the Ki (hSERT [1]) was no more than 10000 nM and the Ki (hNET [2]) was no more than 10000 nM.

Fc1ccc(Cl)cc1OCc1ccccc1N1CCNCC1 [Example 2-24] was tested, and the Ki (hSERT [1]) was no more than 100 nM and the Ki (hNET [2]) was no more than 10000 nM.

c1ccc(-c2ccccc2OCc2ccccc2N2CCNCC2)cc1 [Example 2-8] was tested, and the Ki (hSERT [1]) was no more than 100 nM and the Ki (hNET [2]) was no more than 10000 nM.

c1ccc(Oc2ccccc2OCc2ccccc2N2CCNCC2)cc1 [Example 2-10] was tested, and the Ki (hSERT [1]) was no more than 10000 nM and the Ki (hNET [2]) was no more than 100 nM.
